What was measured:
Assay in all cases: Greenhouse postemergence herbicidal effect
Assay type in all cases: in vivo
[1] = tested on: kochia (KCHSC, Kochia scoparia)
Method: (§1) Seeds of the desired test plant species were planted in a 90:10% v/v (volume/volume) mixture of PRO-MIX® BX (Premier Tech Horticulture, Quakertown, PA, USA) and PROFILE® GREENS GRADE™ (Profile Products LLC, Buffalo Grove, IL, USA) planting mixture, which typically has a pH of 5.2 to 6.2 and an organic matter content of at least 50 percent, in plastic pots with a surface area of 103.2 square centimeters (cm^2). […] The plants were grown for 7-36 days (d) in a greenhouse with an approximate 14-hour (h) photo-period which was maintained at about 23° C. during the day and 22° C. during the night. Nutrients and water were added on a regular basis and supplemental lighting was provided with overhead metal halide 1000-Watt lamps as necessary. The plants were employed for testing when they reached the second or third true leaf stage.
(§2) Emulsifiable concentrates of each of each pyridine carboxylate herbicide (Compound A or Compound B) were prepared at 100 grams acid equivalent per liter (g ae/L). The emulsifiable concentrates also included a safener, cloquintocet-mexyl, at 120 grams active ingredient per liter (g ai/L), unless otherwise noted below. An aliquot of each emulsifiable concentrate was placed in a 25 mL glass vial and diluted with an aqueous mixture of 1.25% (v/v) ACTIROB® B esterified rapeseed oil (Bayer Crop Science, Research Triangle Park, NC, USA) or MSO® Concentrate with LECI-TECH® methylated soybean oil (Loveland Products, Loveland, CO, USA) to obtain concentrated stock solutions at the highest application rate for each herbicide, based upon a 12 milliliter (mL) application volume at a rate of 187 liters per hectare (L/ha). The concentrated stock solutions were further diluted with an aqueous mixture of 1.25% v/v ACTIROB® B or MSO® Concentrate with LECI-TECH® to obtain stock solutions at reduced application rates for each herbicide. Spray solutions of the herbicide combinations (Compound A or Compound B plus ALS herbicide) were prepared by adding weighed amounts or aliquots of the ALS herbicides to the stock solutions of Compound A or Compound B to form 12-mL spray solutions in two- or three-way combinations.
(§3) The spray solutions were applied to the plant material with an overhead Mandel track sprayer equipped with 8002E nozzles calibrated to deliver 187 L/ha over an application area of 0.503 square meters (m^2) at a spray height of 18 inches (43 centimeters (cm)) above the average plant canopy. Control plants were sprayed in the same manner with the solvent blank. All pyridine carboxylate herbicide (component a) application rates are given as “g ae/ha” and all ALS inhibitor (component b) application rates are given as “g ai/ha.”
(§4) The treated plants and control plants were placed in a greenhouse as described above and watered by sub-irrigation to prevent wash-off of the test compounds. After 20-22 d, the condition of the test plants as compared with that of the control plants was determined visually and scored on a scale of 0 to 100 percent where 0 corresponds to no injury and 100 corresponds to complete kill.

[2] = tested on: common lambsquarters (CHEAL, Chenopodium album L.)
Method: as §1, §2, §3, §4

[3] = tested on: Russian thistle (SASKR, Salsola kali)
Method: (§5) The plants were grown for 7-36 days (d) in a greenhouse with an approximate 14-hour (h) photo-period which was maintained at about 23° C. during the day and 22° C. during the night. Nutrients and water were added on a regular basis and supplemental lighting was provided with overhead metal halide 1000-Watt lamps as necessary. The plants were employed for testing when they reached the second or third true leaf stage.
(§6) The emulsifiable concentrates also included a safener, cloquintocet-mexyl, at 120 grams active ingredient per liter (g ai/L), unless otherwise noted below.
(§7) Control plants were sprayed in the same manner with the solvent blank. All pyridine carboxylate herbicide (component a) application rates are given as “g ae/ha” and all ALS inhibitor (component b) application rates are given as “g ai/ha.”
as §4

[4] = tested on: wild buckwheat (POLCO, Polygonum convolvulus); conditions: for Obs % visual injury / % visual injury, Obs: POLCO
Method: as §5, §6, §7, §4

[5] = tested on: winter rape (BRSNW, Brassica napus)
Method: as §5, §6, §7, §4

[6] = tested on: pigweed (AMARE, Amaranthus retroflexus)
Method: as §5, §6, §7, §4

[7] = tested on: wild mustard (SINAR, Sinapis arvensis)
Method: as §5, §6, §7, §4

[8] = tested on: wild chamomile (MATCH, Matricaria chamomilla)
Method: as §5, §6, §7, §4

[9] = tested on: Canadian thistle (CIRAR, Cirsium arvense)
Method: as §5, §6, §7, §4

Compound: mesosulfuron
- % visual injury, Obs ([1]; KCHSC, Mesosulfuron 9 g/ha): 13%
- % visual injury ([1]; Mesosulfuron 3 g/ha): 0%
- % visual injury, Obs ([2]; CHEAL, Mesosulfuron 9 g/ha): 48%
- % visual injury ([2]; Mesosulfuron 3 g/ha): 30%
- % visual injury ([3]; Mesosulfuron 3 g/ha): 15%
- % visual injury ([4]; Mesosulfuron 3 g/ha): 20%
- Obs % visual injury ([4]; Mesosulfuron 3 g/ha): 3%
- % visual injury, Obs ([4]; Mesosulfuron 9 g/ha): 28%
- % visual injury, Obs ([5]; BRSNW, Mesosulfuron 9 g/ha): 95%
- % visual injury ([5]; Mesosulfuron 3 g/ha): 100%
- % visual injury, Obs ([6]; AMARE, Mesosulfuron 9 g/ha): 100%
- % visual injury ([6]; Mesosulfuron 3 g/ha): 78%
- % visual injury ([7]; Mesosulfuron 3 g/ha): 98%
- % visual injury, Obs ([7]; SINAR, Mesosulfuron 9 g/ha): 94%
- Obs % visual injury ([8]; MATCH, Mesosulfuron 3 g/ha): 10%
- % visual injury, Obs ([8]; MATCH, Mesosulfuron 9 g/ha): 45%
- % visual injury ([8]; Mesosulfuron 3 g/ha): 15%
- % visual injury, Obs ([9]; CIRAR, Mesosulfuron 9 g/ha): 73%
- % visual injury ([9]; Mesosulfuron 3 g/ha): 78%

Compound: CCc1cnc(C2=NC(C)(C(C)C)C(=O)N2)c(C(=O)O)c1 (centres unmarked) [Imazethapyr, imazethapyr]
- pest or weed control at 35 g/ha ([1]; Bassia scoparia, post-emergence, 35 g/ha, read-out: % visual injury, Obs): 53%
- % visual injury, Obs ([2]; 35 g/ha): 28%
- % visual injury, Obs ([3]; 35 g/ha): 40%
- % visual injury, Obs ([8]; 35 g/ha): 18%
- pest or weed control at 35 g/ha ([9]; Cirsium arvense, post-emergence, 35 g/ha, read-out: % visual injury, Obs): 40%

Compound: Cc1cnc(C2=NC(C)(C(C)C)C(=O)N2)c(C(=O)O)c1 (centres unmarked) [Imazapic, imazapic]
- Obs % visual injury ([1]; KCHSC, Imazapic 35 g/ha): 80%
- Obs % visual injury ([2]; CHEAL, Imazapic 35 g/ha): 78%
- Obs % visual injury ([3]; SASKR, Imazapic 35 g/ha): 35%
- Obs % visual injury ([4]; Imazapic 35 g/ha): 63%
- Obs % visual injury ([5]; BRSNW, Imazapic 35 g/ha): 98%
- Obs % visual injury ([6]; AMARE, Imazapic 35 g/ha): 100%
- Obs % visual injury ([7]; SINAR, Imazapic 35 g/ha): 91%
- Obs % visual injury ([8]; MATCH, Imazapic 35 g/ha): 68%
- Obs % visual injury ([9]; CIRAR, Imazapic 35 g/ha): 68%

Compound: Cc1ccn2nc(S(=O)(=O)Nc3c(F)cccc3F)nc2n1 [Flumetsulam, flumetsulam]
- % visual injury Obs ([1]; Flumetsulam 4.375 g/ha): 5%
- % visual injury Obs ([2]; Flumetsulam 4.375 g/ha): 45%
- % visual injury Obs ([3]; Flumetsulam 4.375 g/ha): 0%
- % visual injury Obs ([4]; Flumetsulam 4.375 g/ha): 5%
- % visual injury Obs ([5]; Flumetsulam 4.375 g/ha): 40%
- % visual injury Obs ([6]; Flumetsulam 4.375 g/ha): 98%
- % visual injury Obs ([7]; Flumetsulam 4.375 g/ha): 50%
- % visual injury Obs ([8]; Flumetsulam 4.375 g/ha): 83%
- % visual injury Obs ([9]; Flumetsulam 4.375 g/ha): 5%

Compound: COc1nc(C)nc(NC(=O)NS(=O)(=O)c2ccccc2C(=O)O)n1 [Metsulfuron, metsulfuron]
- % visual injury, Obs ([1]; KCHSC, Metsulfuron 3 g/ha): 75%
- % visual injury, Obs ([2]; CHEAL, Metsulfuron 3 g/ha): 98%
- % visual injury, Obs ([4]; Metsulfuron 3 g/ha): 85%
- % visual injury, Obs ([5]; BRSNW, Metsulfuron 3 g/ha): 90%
- % visual injury, Obs ([6]; AMARE, Metsulfuron 3 g/ha): 100%
- % visual injury, Obs ([7]; SINAR, Metsulfuron 3 g/ha): 88%
- % visual injury, Obs ([8]; MATCH, Metsulfuron 3 g/ha): 96%
- % visual injury, Obs ([9]; CIRAR, Metsulfuron 3 g/ha): 85%
